25 compounds from US10604523B2, “1-aryl-4-methyl-[1,2,4]triazolo[4,3-a]quinoxaline derivatives” (Janssen Pharmaceutica NV, priority 2011, dated 2020) can be followed below.

Where two headings read alike, the source gives them in different places. Where only a bound is given, the exact number is not on record here.

Assay [1] has as its system Apomorphine-induced agitation. Description: Reversal of Apomorphine-induced Agitation in Rats (APO). In kind it is in vivo, rat. To be noted: for PO Max effect (cumulative agitation score over 60 min) / SC Max effect (cumulative agitation score over 60 min): apomorphine 1.0 mg/kg i.v.; for PO LAD (lowest active dose) / SC LAD (lowest active dose): lowest dose at which ≥67% tested animals respond; for SC Dose at max effect / SC Max effect (cumulative agitation score over 60 min) / SC LAD (lowest active dose): subcutaneous route.
Description: Apomorphine (1.0 mg/kg, i.v.)-induced agitation was scored every 5 min over the first hour after injection of apomorphine. The score system was: (3) pronounced, (2) moderate, (1) slight, and (0) absent. […] For the present purpose, the cumulative agitation score over the whole 60-min observation period was used as a measure to describe the maximum effect (Max effect).

For assay [2], the target named is T1, Rat recombinant PDE10A (rPDE10A2) (Rattus norvegicus, UniProt Q9QYJ6).
T1 construct: made in house; host or cells: Sf9 insect cells (baculovirus)
T1 sequence (Q9QYJ6 1-794): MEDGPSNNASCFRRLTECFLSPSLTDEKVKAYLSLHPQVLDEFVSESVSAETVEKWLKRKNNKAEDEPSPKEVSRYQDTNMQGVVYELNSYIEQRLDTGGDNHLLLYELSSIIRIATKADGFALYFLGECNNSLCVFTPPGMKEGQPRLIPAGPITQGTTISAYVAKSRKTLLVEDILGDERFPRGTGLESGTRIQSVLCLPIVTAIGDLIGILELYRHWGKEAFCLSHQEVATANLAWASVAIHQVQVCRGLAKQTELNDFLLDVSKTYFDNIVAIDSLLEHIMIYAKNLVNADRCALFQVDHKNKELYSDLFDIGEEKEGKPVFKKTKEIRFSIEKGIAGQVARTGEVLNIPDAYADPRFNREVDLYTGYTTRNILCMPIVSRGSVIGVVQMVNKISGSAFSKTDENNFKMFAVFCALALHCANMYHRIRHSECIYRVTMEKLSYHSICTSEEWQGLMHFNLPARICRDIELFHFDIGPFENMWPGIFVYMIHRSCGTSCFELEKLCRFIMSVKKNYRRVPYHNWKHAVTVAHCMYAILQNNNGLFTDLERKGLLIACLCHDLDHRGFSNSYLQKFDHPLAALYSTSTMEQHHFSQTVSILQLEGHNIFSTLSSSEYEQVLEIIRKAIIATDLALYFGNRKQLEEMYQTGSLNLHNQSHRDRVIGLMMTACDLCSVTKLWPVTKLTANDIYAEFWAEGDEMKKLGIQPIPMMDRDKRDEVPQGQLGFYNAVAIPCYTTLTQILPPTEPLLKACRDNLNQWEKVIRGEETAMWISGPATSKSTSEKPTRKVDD
Description: In vitro assay PDE10A (SPA, 3H-cAMP). In kind it is biochemical.

Assay [3] has as its target T2, Human recombinant PDE2A (hPDE2A) (Homo sapiens, UniProt O00408).
T2 construct: made in house; host or cells: Sf9 insect cells (baculovirus)
The experiment in a line: In vitro assay PDE2A (SPA, 3H-cGMP). In kind it is biochemical.
Description: Tested compounds were dissolved and diluted in 100% DMSO to a concentration 100 fold of the final concentration in the assay. Compound dilutions (0.4 μl) were added in 384 well plates to 20 μl of incubation buffer (50 mM Tris pH 7.8, 8.3 mM MgCl2, 1.7 mM EGTA). 10 μl of hPDE2A enzyme in incubation buffer was added and the reaction was started by addition of 10 μl substrate to a final concentration of 10 μM cGMP and 0.01 μCi ^3H-cGMP. The reaction was incubated for 45 minutes at room temperature. […] After sedimentation of the beads during 30 minutes the radioactivity was measured in a Perkin Elmer Topcount scintillation counter and results were expressed as cpm. For blanc values the enzyme was omitted from the reaction and replaced by incubation buffer. Control values were obtained by addition of a final concentration of 1% DMSO instead of compound.

Setting [4] is: read-out: PIC50 PDE10 (converted).
[5] abbreviates: read-out: pIC50 PDE2 (converted).

T2 sequence (O00408 whole entry): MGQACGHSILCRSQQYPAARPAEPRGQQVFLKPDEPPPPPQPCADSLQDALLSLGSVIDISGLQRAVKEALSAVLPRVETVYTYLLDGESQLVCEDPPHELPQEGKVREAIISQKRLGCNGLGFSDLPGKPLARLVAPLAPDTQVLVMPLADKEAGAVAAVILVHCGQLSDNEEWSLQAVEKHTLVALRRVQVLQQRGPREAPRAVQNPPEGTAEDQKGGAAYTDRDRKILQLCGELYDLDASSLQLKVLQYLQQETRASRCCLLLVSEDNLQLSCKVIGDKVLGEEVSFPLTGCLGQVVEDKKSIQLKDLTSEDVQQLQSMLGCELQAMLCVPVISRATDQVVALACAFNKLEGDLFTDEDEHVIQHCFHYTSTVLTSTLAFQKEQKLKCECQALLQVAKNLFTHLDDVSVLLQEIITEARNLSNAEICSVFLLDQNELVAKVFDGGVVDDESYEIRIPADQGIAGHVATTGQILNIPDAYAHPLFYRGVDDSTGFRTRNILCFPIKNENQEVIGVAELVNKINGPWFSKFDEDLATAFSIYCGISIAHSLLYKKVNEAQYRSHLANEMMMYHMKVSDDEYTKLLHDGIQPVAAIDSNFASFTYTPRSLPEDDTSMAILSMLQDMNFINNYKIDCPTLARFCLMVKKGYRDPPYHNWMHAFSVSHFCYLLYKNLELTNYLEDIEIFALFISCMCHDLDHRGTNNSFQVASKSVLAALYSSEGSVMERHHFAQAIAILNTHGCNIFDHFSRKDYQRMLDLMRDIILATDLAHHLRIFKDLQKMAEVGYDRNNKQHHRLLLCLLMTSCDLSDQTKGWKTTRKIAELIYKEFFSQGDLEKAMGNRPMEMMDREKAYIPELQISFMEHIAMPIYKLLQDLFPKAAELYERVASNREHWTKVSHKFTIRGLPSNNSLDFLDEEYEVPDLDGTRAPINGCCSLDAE

As to `Cc1nc2cc(Br)ccc2n2c(-c3ccccc3Cl)nnc12` [Compound B-3b, 7-Bromo-1-(2-chlorophenyl)-4-methyl[1,2,4]triazolo[4,3-a]quinoxaline], in assay [1], the PO Dose at Max Effect came out at 10 mg/kg, the “PO Max effect (cumulative agitation score over 60 min)” value turned out to be 22 and the PO LAD (lowest active dose) was greater than 10 mg/kg. For the same compound, in assay [2] (setting [4]), the IC50 is 191 nM. Further, the IC50 in assay [3] (setting [5]) is 60.3 nM.
Take `Cc1nc2ccc(C(=O)N(C)Cc3ccccc3)cc2n2c(-c3ccccc3)nnc12` [Compound B-104]: in assay [1], the SC Dose at max effect was 2.5 mg/kg, the “SC Max effect (cumulative agitation score over 60 min)” value was 21 and the SC LAD (lowest active dose) is greater than 2.5 mg/kg. The IC50 in assay [2] (setting [4]) is 204 nM. Besides, the IC50 in assay [3] (setting [5]) is 19.1 nM.
Regarding `Cc1nc2ccc(CN3CCOC(CO)C3)cc2n2c(-c3ccccc3Cl)nnc12` (centres unmarked) [Compound B-55], in assay [1], the SC Dose at max effect is 10 mg/kg, the “SC Max effect (cumulative agitation score over 60 min)” value stood at 22 and the SC LAD (lowest active dose) is greater than 10 mg/kg. The IC50 in assay [2] was 10.7 nM. In assay [3], the IC50 is 3.47 nM.
As for `Cc1nc2ccc(C(=O)NCCc3ccccc3)cc2n2c(-c3ccccc3Cl)nnc12` [Compound B-38], in assay [1], the PO Dose at Max Effect was found to be 2.5 mg/kg, the “PO Max effect (cumulative agitation score over 60 min)” value stood at 19 and the PO LAD (lowest active dose) came to 2.5 mg/kg. The IC50 in assay [2] (setting [4]) was 25.1 nM. Besides, in assay [3] (setting [5]), the IC50 is 0.724 nM.
In the case of `Cc1nc2ccc(C(=O)NCCc3ccccc3)cc2n2c(-c3ccccc3)nnc12` [Compound B-54], in assay [1], the PO Dose at Max Effect was determined as 2.5 mg/kg, the “PO Max effect (cumulative agitation score over 60 min)” value is 22 and the PO LAD (lowest active dose) is greater than 2.5 mg/kg. Moreover, the IC50 in assay [2] (setting [4]) was 93.3 nM. Moreover, in assay [3] (setting [5]), the IC50 was 3.47 nM.
`CCOc1ccc(Cl)c(-c2nnc3c(C)nc4ccc(CN5CCN(C)CC5)cc4n23)c1` [Compound B-145]: in assay [1], the SC Dose at max effect worked out at 10 mg/kg, the “SC Max effect (cumulative agitation score over 60 min)” value worked out at 22 and the SC LAD (lowest active dose) is greater than 10 mg/kg. In addition, the IC50 in assay [2] (setting [4]) is 240 nM. In assay [3] (setting [5]), the IC50 was 40.7 nM.
As for `Cc1nc2ccc(C(=O)NCCF)cc2n2c(-c3ccccc3Cl)nnc12` [Compound B-40], in assay [1], the PO Dose at Max Effect is 10 mg/kg, the “PO Max effect (cumulative agitation score over 60 min)” value stood at 22 and the PO LAD (lowest active dose) was greater than 10 mg/kg. In addition, in assay [2] (setting [4]), the IC50 is 18.6 nM. Moreover, the IC50 in assay [3] (setting [5]) is 1.02 nM.
For the compound `COc1ccc(Cl)c(-c2nnc3c(C)nc4ccc(CN5CCC(F)CC5)cc4n23)c1` [Compound B-97], in assay [1], the SC Dose at max effect worked out at 10 mg/kg, the “SC Max effect (cumulative agitation score over 60 min)” value is 19 and the SC LAD (lowest active dose) worked out at 10 mg/kg. For the same compound, in assay [2] (setting [4]), the IC50 is 77.6 nM. For the same compound, the IC50 in assay [3] (setting [5]) is 14.1 nM.
As for `Cc1nc2cc(OCCc3ccccn3)ccc2n2c(-c3ccccc3Cl)nnc12` [Compound B-139], in assay [1], the PO Dose at Max Effect turned out to be 10 mg/kg, the “PO Max effect (cumulative agitation score over 60 min)” value amounted to 22 and the PO LAD (lowest active dose) was greater than 10 mg/kg. Further, in assay [2] (setting [4]), the IC50 is 63.1 nM. For the same compound, the IC50 in assay [3] (setting [5]) was 34.7 nM.
For `Cc1nc2ccc(C(=O)NCc3cccc(F)n3)cc2n2c(-c3ccccc3Cl)nnc12` [Compound B-32], in that order: 10 mg/kg, 22, greater than 10 mg/kg, 6.61 nM and 0.251 nM.
Consider `COc1ccc2nc(C)c3nnc(-c4ccccc4Cl)n3c2c1` [Compound B-5, 1-(2-Chlorophenyl)-8-methoxy-4-methyl[1,2,4]triazolo[4,3-a]quinoxaline], for which, in assay [1], the PO Dose at Max Effect was found to be 10 mg/kg, the “PO Max effect (cumulative agitation score over 60 min)” value is given as 21 and the PO LAD (lowest active dose) was greater than 10 mg/kg. Also, the IC50 in assay [2] (setting [4]) was 25.1 nM. For the same compound, in assay [3] (setting [5]), the IC50 is 7.59 nM.
For `Cc1nc2ccc(OCCc3ccccn3)cc2n2c(-c3ccccc3Cl)nnc12` [Compound B-15, 1-(2-Chlorophenyl)-4-methyl-8-(2-pyridin-2-ylethoxy) [1,2,4]triazolo[4,3-a]quinoxaline], in assay [1], the SC Dose at max effect is 10 mg/kg, the “SC Max effect (cumulative agitation score over 60 min)” value is listed as 10 and the SC LAD (lowest active dose) is 2.5 mg/kg. For the same compound, the IC50 in assay [2] (setting [4]) is 16.2 nM. Besides, the IC50 in assay [3] (setting [5]) was 8.71 nM.
For `Cc1nc2ccc(CN[C@H]3CC[C@H](O)CC3)cc2n2c(-c3ccccc3Cl)nnc12` [Compound B-90], in that order: 10 mg/kg, 25, greater than 10 mg/kg, 50.1 nM and 12 nM.
As to `CCNC(=O)c1ccc2nc(C)c3nnc(-c4ccccc4OC)n3c2c1` [Compound B-78], in assay [1], the PO Dose at Max Effect was 10 mg/kg, the “PO Max effect (cumulative agitation score over 60 min)” value was found to be 21 and the PO LAD (lowest active dose) is greater than 10 mg/kg. The IC50 in assay [2] (setting [4]) was 93.3 nM. Moreover, in assay [3] (setting [5]), the IC50 was 7.59 nM.
On to `CCOc1ccc(Cl)c(-c2nnc3c(C)nc4ccc(CN5CCC(F)CC5)cc4n23)c1` [Compound B-140], for which, in assay [1], the SC Dose at max effect worked out at 10 mg/kg, the “SC Max effect (cumulative agitation score over 60 min)” value is recorded as 24 and the SC LAD (lowest active dose) is greater than 10 mg/kg. Moreover, the IC50 in assay [2] (setting [4]) is 282 nM. Moreover, in assay [3] (setting [5]), the IC50 was 34.7 nM.
Take `Cc1nc2ccc(C(=O)NCc3ccccn3)cc2n2c(-c3ccc(Cl)cc3Cl)nnc12` [Compound B-108]: in assay [1], the PO Dose at Max Effect was 10 mg/kg, the “PO Max effect (cumulative agitation score over 60 min)” value worked out at 19 and the PO LAD (lowest active dose) was greater than 10 mg/kg. Moreover, the IC50 in assay [2] (setting [4]) is 36.3 nM. In addition, the IC50 in assay [3] (setting [5]) is 20.4 nM.
Taken in the same sequence, the figures for `Cc1nc2ccc(C(=O)NCCO)cc2n2c(-c3ccccc3Cl)nnc12` [Compound B-42] were 10 mg/kg, 22, greater than 10 mg/kg, 29.5 nM and 1.51 nM.
Taken in the same sequence, the figures for `Cc1nc2ccc(NCCc3ccccn3)cc2n2c(-c3ccccc3Cl)nnc12` [Compound B-60] were 10 mg/kg, 21, greater than 10 mg/kg, 6.61 nM and 5.01 nM.
Regarding `COCC1CCN(Cc2ccc3nc(C)c4nnc(-c5ccccc5Cl)n4c3c2)C1` (centres unmarked) [Compound B-94], in assay [1], the SC Dose at max effect was 5 mg/kg, the “SC Max effect (cumulative agitation score over 60 min)” value is listed as 24 and the SC LAD (lowest active dose) is greater than 5 mg/kg. The IC50 in assay [2] (setting [4]) was 64.6 nM. Besides, in assay [3] (setting [5]), the IC50 was 12.9 nM.
For `CCOc1ccc(Cl)c(-c2nnc3c(C)nc4ccc(CN5CCC(O)CC5)cc4n23)c1` [Compound B-128], in that order: 10 mg/kg, 21, greater than 10 mg/kg, 229 nM and 28.8 nM.
Taken in the same sequence, the figures for `Cc1nc2ccc(OCCN3CCOCC3)cc2n2c(-c3ccccc3Cl)nnc12` [Compound B-113] were 10 mg/kg, 8, 10 mg/kg, 33.1 nM and 22.9 nM.
Regarding `Cc1nc2ccc(C(=O)NCc3ccccn3)cc2n2c(-c3cc(F)ccc3Cl)nnc12` [Compound B-39], in assay [1], the PO Dose at Max Effect worked out at 10 mg/kg, the “PO Max effect (cumulative agitation score over 60 min)” value amounted to 21 and the PO LAD (lowest active dose) is greater than 10 mg/kg. Moreover, the IC50 in assay [2] (setting [4]) is 24 nM. Besides, the IC50 in assay [3] (setting [5]) was 1 nM.
Take `COCC1CN(Cc2ccc3nc(C)c4nnc(-c5ccccc5Cl)n4c3c2)CCO1` (centres unmarked) [Compound B-75]: in assay [1], the SC Dose at max effect came out at 10 mg/kg, the “SC Max effect (cumulative agitation score over 60 min)” value is given as 15 and the SC LAD (lowest active dose) is 2.5 mg/kg. In assay [2] (setting [4]), the IC50 was 63.1 nM. The IC50 in assay [3] (setting [5]) is 6.92 nM.
As to `COc1ccc(Cl)c(-c2nnc3c(C)nc4ccc(C(=O)NCc5ccccn5)cc4n23)c1` [Compound B-43], in assay [1], the PO Dose at Max Effect is 10 mg/kg, the “PO Max effect (cumulative agitation score over 60 min)” value was 19 and the PO LAD (lowest active dose) was 10 mg/kg. Moreover, in assay [2] (setting [4]), the IC50 is 43.7 nM. In assay [3] (setting [5]), the IC50 was 1.62 nM.
Turning to `Cc1nc2ccc(C(=O)NCc3ccccn3)cc2n2c(-c3cc(Cl)ccc3Cl)nnc12` [Compound B-11, 1-(2,5-Dichlorophenyl)-4-methyl-N-(pyridin-2-ylmethyl)[1,2,4]triazolo[4,3-a]quinoxaline-8-carboxamide], in assay [1], the PO Dose at Max Effect was 10 mg/kg, the “PO Max effect (cumulative agitation score over 60 min)” value is 19 and the PO LAD (lowest active dose) is greater than 10 mg/kg. Besides, the IC50 in assay [2] (setting [4]) is 33.9 nM. Besides, in assay [3] (setting [5]), the IC50 was 1.62 nM.
